Laboratory results from paper PMC5034043 (The Journal of Biological Chemistry, 2016).
Like-named read-outs stand apart in the source and are kept apart here.

Tested on: synaptosomal proteome
Assay type: binding, mouse
Protocol: Synaptosomes were resuspended to 1 mg of protein/ml in HEPES buffer medium (in mM: 140 NaCl, 5 KCl, 5 NaHCO3, 1.2 NaH2PO4, 1 MgCl2, 10 glucose, and 10 HEPES (pH 7.4)). […] The samples were allowed to equilibrate for 5 min before being transferred to a parafilm-sealed 1-mm path length quartz cuvette. The sample was then irradiated for 20 min at a peak bandwidth of 350 nm (Rayonet RPR-3500 lamp) ∼6 cm from the light source. Non-irradiated samples were left in the dark at ambient temperature (22–25 °C) for 20 min. All remaining procedures were conducted with restricted light exposure.
To 750 μg of photolabeled or control synaptosome samples, 40 μl of 10% SDS and 2 μl of 5 mM DTT in water were added. Samples were then vortexed, heated for 10 min at 65 °C, and then briefly cooled. Final concentrations of 150 μM azide-biotin (Click Chemistry Tools), 2 mM tris(3-hydroxypropyltriazolylmethyl)amine (Sigma), 1 mM ascorbic acid (Sigma), and 1 mM CuSO4·5H2O (Sigma) were added to each sample and vortexed vigorously. The samples were left in the dark at ambient temperature (22–25 °C) for 1 h with mild agitation. Directly to each sample 4× volume chilled methanol, 1.5× chilled chloroform, and 3× chilled double distilled H2O were added. Samples were vortexed vigorously and centrifuged at 1,400 × g for 30 min at 4 °C. Both liquid layers were carefully removed, and the protein pellet was washed with 2 ml of 1:1 (v/v) chilled methanol/chloroform. Samples were centrifuged at 3,500 × g for 30 min at 4 °C. Protein pellets were briefly air-dried before further processing.
750 μg of biotin-conjugated protein sample was resuspended in 500 μl of 25 mM NH4HCO3 and 6 M urea in water. Next, 150 μl of 5% Triton X-100 in water, 50 μl of 10% SDS in water, and 1.5 μl of 0.5 M DTT were added. The samples were heated for 15 min at 65 °C. After briefly cooling, 14 μl of 0.5 M iodoacetamide in water was added, and the sample was left in the dark for 45 min. […] The supernatant was diluted to 4 ml with PBS, and 2 ml of PBS containing 100 μl of 50% streptavidin-agarose resin (Thermo Scientific) was added. Biotinylated proteins within the sample were captured over resin overnight at 4 °C with mild agitation. The resin was first washed with 6 ml of 1% SDS in PBS, and then 7 ml of 0.1 M urea in PBS followed by 10 ml of PBS. The resin underwent a final wash with 0.9 ml of 50 mM Tris-HCl and 1 mM CaCl2 in water (pH 8.0) and then resuspended in 200 μl of 50 mM Tris-HCl, 1 mM CaCl2 in water (pH 8.0), and 2 μg of porcine sequencing grade trypsin (Promega). Samples were digested overnight at 37 °C. Samples were then centrifuged at 2,000 × g for 4 min, and digest supernatant was decanted. Beads were washed in 100 μl of PBS centrifuged at 5,200 × g for 5 min, and the wash was combined with the digest supernatant. To the combined sample, trifluoroacetic acid (TFA) was added to 0.4% (v/v) or until pH <2. The sample was desalted with Oasis C18 10-mg columns (Waters) as described previously ([66]). The eluted sample was dried by speed vac and resuspended in 0.1 M HEPES buffer (pH 8.5). […] Appropriate corresponding TMTsixplex^TM-labeled samples were pooled and dried by speed vac. The combined samples were resuspended in 0.5% acetic acid in water and pH-corrected with acetic acid until pH was <2. 40 μg of protein was desalted with C18 stage tips prepared in-house and dried by speed vac.
Samples were resuspended in 10 mM KH2PO4 (pH 2.6), 30% acetonitrile (v/v) in water, and fractionated by off-line strong cation exchange chromatography prior to mass spectrometry (MS) analysis similar to as reported previously ([66]). The full synaptosome proteome control was prepared similarly without TMTsixplex^TM labeling.
All TMT samples were analyzed with three-stage mass spectrometry (MS3) TMTsixplex^TM quantification workflow as described previously ([34]).

[1] = protein A2AI17 Glutamate receptor ionotropic, NMDA 1 (Grin1)
[2] = protein P70429-2 Isoform 1 of Ena/VASP-like protein (Evl)
[3] = protein P97300-3 Isoform 3 of Neuroplastin (Nptn)
[4] = protein Q8BJU0-2 Isoform 2 of Small glutamine-rich tetratricopeptide repeat-containing protein alpha (Sgta)
[5] = protein Q8CFX3 Protein Pcdh1 (Pcdh1)
[6] = protein Q9DBF1-2 Isoform 2 of Alpha-aminoadipic semialdehyde dehydrogenase (Aldh7a1)
[7] = protein Q9EPJ9-2 Isoform 2 of ADP-ribosylation factor GTPase-activating protein 1 (Arfgap1)

CC(C)c1cccc(C(C)C)c1O [propofol, 2,6-diisopropylphenol, reference compound]
Log2( Mean 'UV/ UV+propofol') (O35633-2 Slc32a1): 1.24
% propofol protection (Q8BKX1-4 Baiap2): 71%
Log2( Mean 'UV/ UV+propofol') (Q8BKX1-4 Baiap2): 1.77
% propofol protection (Q8VDQ8-2 Sirt2): 71%
Log2( Mean 'UV/ UV+propofol') (Q8VDQ8-2 Sirt2): 1.61
decrease in enrichment factor with propofol protection (five GABAA receptor subunits (α1,3 and β1–3), enrichment factor = mean (+)UV/(−)UV TMT ratio): at least 10
% propofol protection [1]: 57%
Log2( Mean 'UV/ UV+propofol') [1]: 1.07
% propofol protection [2]: 56%
Log2( Mean 'UV/ UV+propofol') [2]: 1.14
Log2( Mean 'UV/ UV+propofol') [3]: 1.17
% propofol protection [4]: 56%
Log2( Mean 'UV/ UV+propofol') [4]: 1.02
% propofol protection [5]: 50%
Log2( Mean 'UV/ UV+propofol') [5]: 0.87
% propofol protection [6]: 52%
Log2( Mean 'UV/ UV+propofol') [6]: 0.94
% propofol protection [7]: 56%
Log2( Mean 'UV/ UV+propofol') [7]: 1.06

C#CCOCc1ccc(C2(C(F)(F)F)N=N2)cc1O [AziPm-click (1), 2-((prop-2-yn-1-yloxy)methyl)-5-(3-(trifluoromethyl)-3H-diazirin-3-yl)phenol]
TMT Ratio Mean 'UV/ No UV' (O35633-2 Slc32a1): 20.27
TMT Ratio Mean 'UV/ No UV' (P60879-2 Snap25): 23.67
Log2( Mean 'UV/ No UV') [1]: 3.36
TMT Ratio Mean 'UV/ No UV' [1]: 10.28
TMT Ratio Mean 'UV/ No UV' (protein P23819-4 Isoform 4 of Glutamate receptor 2 (Gria2)): 12.58
TMT Ratio Mean 'UV/ No UV' [2]: 19.89
TMT Ratio Mean 'UV/ No UV' [3]: 12.71
TMT Ratio Mean 'UV/ No UV' [4]: 15.19
TMT Ratio Mean 'UV/ No UV' [6]: 14.82
TMT Ratio Mean 'UV/ No UV' [7]: 10.88
